Literature values as cited in patent US12343427B1, “Stable intravenous diltiazem hydrochloride formulation and use thereof” (Nivagen Pharmaceuticals, Inc., priority 2024, dated 2025).

Molecular target: CYP2D6 (Homo sapiens, UniProt P10635)
Conditions: Molden E, et al. Drug Metab Dispos. 30: 1-3 (2002)

Sequence of CYP2D6 (P10635 whole entry): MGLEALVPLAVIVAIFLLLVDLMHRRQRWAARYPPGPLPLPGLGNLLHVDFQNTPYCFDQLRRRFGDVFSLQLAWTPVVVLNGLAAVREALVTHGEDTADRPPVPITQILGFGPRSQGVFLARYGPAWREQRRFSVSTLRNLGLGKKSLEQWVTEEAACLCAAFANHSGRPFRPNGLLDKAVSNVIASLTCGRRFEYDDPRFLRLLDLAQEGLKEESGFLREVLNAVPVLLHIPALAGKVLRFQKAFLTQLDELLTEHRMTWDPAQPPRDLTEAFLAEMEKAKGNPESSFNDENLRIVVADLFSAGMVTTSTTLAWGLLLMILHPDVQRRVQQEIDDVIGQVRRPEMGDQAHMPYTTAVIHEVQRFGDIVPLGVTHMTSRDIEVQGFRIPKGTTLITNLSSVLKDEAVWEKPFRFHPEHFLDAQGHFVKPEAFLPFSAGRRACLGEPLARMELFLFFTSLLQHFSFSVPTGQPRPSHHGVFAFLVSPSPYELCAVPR

## COc1ccc([C@@H]2Sc3ccccc3N(CCN(C)C)C(=O)[C@@H]2O)cc1 [Desacetyl-diltiazem]
  affinity to CYP2D6 compared with CYP3A4: severalfold higher affinity to CYP2D6 compared with CYP3A4
